Results: ChEMBL document CHEMBL1133497, “Design and synthesis of anticonvulsive agents as gamma-vinyl GABA-based potential dual acting prodrugs and their biological activities” (2000)

Experiments:
Assay type in all cases: functional
[1] = species on record: Mus musculus; experiment: Effective dose required for anticonvulsive activity in bicuculline (BIC) test
[2] = species on record: Mus musculus; experiment: Effective dose required for anticonvulsive activity in maximal electroshock seizure (MES) test
[3] = species on record: Mus musculus; experiment: Anticonvulsive activity in picrotoxin (PCR) induced seizure test
[4] = species on record: Mus musculus; experiment: Effective dose required for anticonvulsive activity in pentylenetetrazole (PTZ) test
[5] = system: Mus musculus; experiment: Protection from picrotoxin-induced (0.27 mmol/kg) convulsion over 16 hr at 100 mg/kg in 4 mice
[6] = system: Mus musculus; experiment: Protection from picrotoxin-induced (0.27 mmol/kg) convulsion over 6 hr at 100 mg/kg in 4 mice
[7] = system: Mus musculus; experiment: Protection from picrotoxin-induced (0.27 mmol/kg) convulsion over 9 hr at 100 mg/kg in 4 mice
[8] = system: Mus musculus; experiment: Protection from picrotoxin-induced (0.27 mmol/kg) convulsion over 3 hr at 100 mg/kg in 4 mice
[9] = species on record: Mus musculus; experiment: Effective dose required for anticonvulsive activity in bicuculline (BIC) test; Not effective
[10] = species on record: Mus musculus; experiment: Effective dose required for anticonvulsive activity in maximal electroshock seizure (MES) test; Not effective
[11] = species on record: Mus musculus; experiment: Anticonvulsive activity in picrotoxin (PCR) induced seizure test (ineffective)
[12] = system: Mus musculus; experiment: Effective dose required for anticonvulsive activity in pentylenetetrazole (PTZ) test at >0.1 mmol/kg
[13] = species on record: Mus musculus; experiment: Effective dose required for anticonvulsive activity in pentylenetetrazole (PTZ) test; Not effective

C=CC(CCC(=O)OC)NC(=O)C1CCCNC1 (stereo not drawn)
ED50 [1]: 310 µmol/kg | ED50 [2]: > 540 µmol/kg | ED50 [3]: 260 µmol/kg | ED50 [4]: 410 µmol/kg

C=CC(N)CCC(=O)N1CCC(C(=O)OC)CC1 (stereo not drawn)
No. of mice protected [5]: 0 | ED50 [1]: 150 µmol/kg | ED50 [2]: > 540 µmol/kg | ED50 [3]: 260 µmol/kg | No. of mice protected [6]: 2 | ED50 [4]: 320 µmol/kg | No. of mice protected [7]: 0 | No. of mice protected [8]: 2

C=CC(N)CCC(=O)N1CCCC(C(=O)OC)C1 (stereo not drawn)
No. of mice protected [5]: 0 | ED50 [1]: 140 µmol/kg | ED50 [2]: > 540 µmol/kg | ED50 [3]: 100 µmol/kg | No. of mice protected [6]: 0 | ED50 [4]: 150 µmol/kg | No. of mice protected [7]: 0 | No. of mice protected [8]: 2

C=CC(CCC(=O)OC)NC(=O)C1CCNCC1 (stereo not drawn)
ED50 [1]: 460 µmol/kg | ED50 [2]: > 540 µmol/kg | ED50 [3]: 390 µmol/kg | ED50 [4]: > 540 µmol/kg

C=CC(N)CCC(=O)N1CCCC1=O (stereo not drawn)
ED50 [1]: 200 µmol/kg | ED50 [2]: > 540 µmol/kg | ED50 [3]: 260 µmol/kg | ED50 [4]: > 540 µmol/kg

O=C1CCCN1 [2-PYRROLIDONE]
ED50 [9]: > 1000 µmol/kg | ED50 [10]: > 1000 µmol/kg | ED50 [11]: > 1000 µmol/kg | ED50 [12]: 540 µmol/kg

O=C(O)C1CCNCC1 [ISONIPECOTIC ACID]
ED50 [9]: > 1000 µmol/kg

O=C(O)C1CCCNC1 (stereo not drawn) [NIPECOTIC ACID]
ED50 [9]: > 1000 µmol/kg | ED50 [10]: > 1000 µmol/kg

C=CC(N)CCC(=O)O (stereo not drawn) [VIGABATRIN]
No. of mice protected [5]: 0 | ED50 [1]: 220 µmol/kg | ED50 [3]: 210 µmol/kg | No. of mice protected [6]: 4 | ED50 [13]: > 1000 µmol/kg | No. of mice protected [7]: 3 | No. of mice protected [8]: 4 | ED50 [10]: > 1000 µmol/kg
